According to ChEMBL document CHEMBL5331138, “Potent, Selective, and Membrane Permeable 2-Amino-4-Substituted Pyridine-Based Neuronal Nitric Oxide Synthase Inhibitors” (J Med Chem, 2023):

Columns and labels:
Nitric oxide synthase 3 = target: T1, Nitric oxide synthase 3 (Homo sapiens, UniProt P29474); experiment: Inhibition of human eNOS expressed in Escherichia coli using human oxyhemoglobin by hemoglobin (Hb) NO capture assay
T1 sequence (P29474 whole entry): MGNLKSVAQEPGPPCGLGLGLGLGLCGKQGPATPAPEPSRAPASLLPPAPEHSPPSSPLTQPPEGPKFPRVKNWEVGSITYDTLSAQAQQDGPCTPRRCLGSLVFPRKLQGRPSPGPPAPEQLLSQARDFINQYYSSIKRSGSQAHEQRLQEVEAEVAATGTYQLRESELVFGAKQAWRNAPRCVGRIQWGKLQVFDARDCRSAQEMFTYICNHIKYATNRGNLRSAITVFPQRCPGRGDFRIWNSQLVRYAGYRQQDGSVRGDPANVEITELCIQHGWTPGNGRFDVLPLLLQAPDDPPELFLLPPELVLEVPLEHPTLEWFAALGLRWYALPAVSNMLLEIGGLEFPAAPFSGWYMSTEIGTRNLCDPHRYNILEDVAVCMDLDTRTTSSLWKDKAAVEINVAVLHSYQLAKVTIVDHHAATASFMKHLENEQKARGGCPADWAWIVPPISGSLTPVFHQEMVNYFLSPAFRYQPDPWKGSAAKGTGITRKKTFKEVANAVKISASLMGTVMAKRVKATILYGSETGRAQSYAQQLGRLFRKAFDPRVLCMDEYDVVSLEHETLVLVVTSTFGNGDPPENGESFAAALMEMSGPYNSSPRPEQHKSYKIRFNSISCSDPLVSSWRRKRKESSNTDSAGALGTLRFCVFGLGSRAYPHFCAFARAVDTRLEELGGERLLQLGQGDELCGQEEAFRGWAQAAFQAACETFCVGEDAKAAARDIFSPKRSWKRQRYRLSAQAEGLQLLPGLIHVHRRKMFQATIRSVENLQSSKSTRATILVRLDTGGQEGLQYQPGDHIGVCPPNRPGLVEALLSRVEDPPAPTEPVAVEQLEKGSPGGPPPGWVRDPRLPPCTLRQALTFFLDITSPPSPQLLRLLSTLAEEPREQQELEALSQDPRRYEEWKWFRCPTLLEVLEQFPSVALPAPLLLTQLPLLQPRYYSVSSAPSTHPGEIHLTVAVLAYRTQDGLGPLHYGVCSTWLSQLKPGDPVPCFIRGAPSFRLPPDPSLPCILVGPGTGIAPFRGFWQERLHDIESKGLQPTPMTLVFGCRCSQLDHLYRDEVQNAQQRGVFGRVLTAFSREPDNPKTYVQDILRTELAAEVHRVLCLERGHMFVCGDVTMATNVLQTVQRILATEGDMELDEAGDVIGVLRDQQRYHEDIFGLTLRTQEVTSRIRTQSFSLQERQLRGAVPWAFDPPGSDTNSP

Nitric oxide synthase 1 [1] = target: Nitric oxide synthase 1 (Homo sapiens, UniProt P29475)
Description: Inhibition of human nNOS expressed in Escherichia coli using human oxyhemoglobin by hemoglobin (Hb) NO capture assay

Nitric oxide synthase 1 [2] = target: Nitric oxide synthase 1 (Rattus norvegicus, UniProt P29476)
Description: Inhibition of rat nNOS expressed in Escherichia coli using human oxyhemoglobin by hemoglobin (Hb) NO capture assay

[3] = target: Nitric oxide synthase, inducible (Homo sapiens, UniProt P35228)
Description: Inhibition of human iNOS expressed in Escherichia coli using human oxyhemoglobin by hemoglobin (Hb) NO capture assay

[4] = mouse, microsomes
[5] = human, microsomes

Sequence of Nitric oxide synthase 1 (Homo sapiens, UniProt P29475) (P29475 whole entry): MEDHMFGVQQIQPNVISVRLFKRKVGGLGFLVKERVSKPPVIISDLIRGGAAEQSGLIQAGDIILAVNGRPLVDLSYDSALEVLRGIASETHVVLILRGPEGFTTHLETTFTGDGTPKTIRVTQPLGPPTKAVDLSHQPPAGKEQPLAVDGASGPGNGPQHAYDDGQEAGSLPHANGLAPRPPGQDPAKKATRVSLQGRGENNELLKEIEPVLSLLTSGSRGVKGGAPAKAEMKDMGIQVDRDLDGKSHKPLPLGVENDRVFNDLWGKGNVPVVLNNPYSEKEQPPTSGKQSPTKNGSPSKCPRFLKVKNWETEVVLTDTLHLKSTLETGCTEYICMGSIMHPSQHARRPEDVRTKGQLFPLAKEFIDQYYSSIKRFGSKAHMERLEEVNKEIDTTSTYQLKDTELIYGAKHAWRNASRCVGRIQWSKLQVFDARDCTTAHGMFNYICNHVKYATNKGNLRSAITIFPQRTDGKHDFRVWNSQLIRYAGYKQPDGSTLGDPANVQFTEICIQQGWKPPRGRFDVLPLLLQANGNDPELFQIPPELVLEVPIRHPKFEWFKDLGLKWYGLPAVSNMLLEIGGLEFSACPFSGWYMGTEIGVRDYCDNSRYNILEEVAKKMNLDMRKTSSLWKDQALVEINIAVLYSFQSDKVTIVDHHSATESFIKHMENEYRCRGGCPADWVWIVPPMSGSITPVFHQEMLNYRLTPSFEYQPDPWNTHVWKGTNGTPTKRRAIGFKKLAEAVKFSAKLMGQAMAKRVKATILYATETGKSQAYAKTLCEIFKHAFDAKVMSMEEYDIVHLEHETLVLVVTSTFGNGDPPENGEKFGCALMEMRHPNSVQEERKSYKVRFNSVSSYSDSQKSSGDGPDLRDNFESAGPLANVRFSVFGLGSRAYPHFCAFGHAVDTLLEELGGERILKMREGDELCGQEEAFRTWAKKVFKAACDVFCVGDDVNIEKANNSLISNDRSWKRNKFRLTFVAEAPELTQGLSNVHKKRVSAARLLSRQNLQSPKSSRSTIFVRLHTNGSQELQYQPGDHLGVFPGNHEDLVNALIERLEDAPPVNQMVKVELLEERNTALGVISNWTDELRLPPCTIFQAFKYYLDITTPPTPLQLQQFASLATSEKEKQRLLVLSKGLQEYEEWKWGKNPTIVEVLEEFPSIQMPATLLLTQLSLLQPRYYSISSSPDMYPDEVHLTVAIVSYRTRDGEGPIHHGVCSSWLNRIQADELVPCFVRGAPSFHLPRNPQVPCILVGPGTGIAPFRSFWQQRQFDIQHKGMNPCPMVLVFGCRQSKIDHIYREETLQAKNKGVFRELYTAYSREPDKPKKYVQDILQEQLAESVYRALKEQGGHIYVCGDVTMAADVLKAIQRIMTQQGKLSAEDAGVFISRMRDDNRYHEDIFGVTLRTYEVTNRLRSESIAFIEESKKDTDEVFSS
Sequence of Nitric oxide synthase, inducible (P35228 whole entry): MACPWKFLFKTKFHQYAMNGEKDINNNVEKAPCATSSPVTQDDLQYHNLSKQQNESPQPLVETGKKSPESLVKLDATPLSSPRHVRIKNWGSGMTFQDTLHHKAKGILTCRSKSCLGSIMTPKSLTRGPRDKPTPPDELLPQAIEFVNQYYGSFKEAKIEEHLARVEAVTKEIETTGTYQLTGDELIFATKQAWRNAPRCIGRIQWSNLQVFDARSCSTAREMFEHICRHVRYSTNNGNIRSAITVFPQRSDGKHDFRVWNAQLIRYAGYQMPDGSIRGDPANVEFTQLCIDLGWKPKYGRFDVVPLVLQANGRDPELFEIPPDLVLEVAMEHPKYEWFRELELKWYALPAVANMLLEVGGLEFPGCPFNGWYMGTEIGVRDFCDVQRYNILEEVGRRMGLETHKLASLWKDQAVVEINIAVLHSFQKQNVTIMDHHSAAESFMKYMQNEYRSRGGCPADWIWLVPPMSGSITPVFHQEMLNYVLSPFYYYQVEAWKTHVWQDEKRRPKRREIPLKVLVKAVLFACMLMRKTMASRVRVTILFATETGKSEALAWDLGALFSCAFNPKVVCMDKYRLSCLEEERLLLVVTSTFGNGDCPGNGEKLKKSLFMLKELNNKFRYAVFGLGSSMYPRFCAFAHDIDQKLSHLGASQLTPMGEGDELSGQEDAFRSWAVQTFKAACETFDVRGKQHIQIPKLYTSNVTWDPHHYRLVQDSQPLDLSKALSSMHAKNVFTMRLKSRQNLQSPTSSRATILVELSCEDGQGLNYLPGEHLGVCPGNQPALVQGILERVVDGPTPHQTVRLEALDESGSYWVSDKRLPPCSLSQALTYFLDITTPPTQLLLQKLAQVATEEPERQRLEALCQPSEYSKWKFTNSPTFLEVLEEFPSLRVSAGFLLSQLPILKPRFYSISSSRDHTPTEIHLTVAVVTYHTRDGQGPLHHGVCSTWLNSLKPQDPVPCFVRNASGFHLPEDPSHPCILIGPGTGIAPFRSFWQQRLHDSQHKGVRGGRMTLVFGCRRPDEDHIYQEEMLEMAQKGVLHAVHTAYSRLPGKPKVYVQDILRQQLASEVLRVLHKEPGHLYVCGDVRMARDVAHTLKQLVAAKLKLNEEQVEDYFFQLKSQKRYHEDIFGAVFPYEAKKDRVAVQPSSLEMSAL
Sequence of Nitric oxide synthase 1 (Rattus norvegicus, UniProt P29476) (P29476 whole entry): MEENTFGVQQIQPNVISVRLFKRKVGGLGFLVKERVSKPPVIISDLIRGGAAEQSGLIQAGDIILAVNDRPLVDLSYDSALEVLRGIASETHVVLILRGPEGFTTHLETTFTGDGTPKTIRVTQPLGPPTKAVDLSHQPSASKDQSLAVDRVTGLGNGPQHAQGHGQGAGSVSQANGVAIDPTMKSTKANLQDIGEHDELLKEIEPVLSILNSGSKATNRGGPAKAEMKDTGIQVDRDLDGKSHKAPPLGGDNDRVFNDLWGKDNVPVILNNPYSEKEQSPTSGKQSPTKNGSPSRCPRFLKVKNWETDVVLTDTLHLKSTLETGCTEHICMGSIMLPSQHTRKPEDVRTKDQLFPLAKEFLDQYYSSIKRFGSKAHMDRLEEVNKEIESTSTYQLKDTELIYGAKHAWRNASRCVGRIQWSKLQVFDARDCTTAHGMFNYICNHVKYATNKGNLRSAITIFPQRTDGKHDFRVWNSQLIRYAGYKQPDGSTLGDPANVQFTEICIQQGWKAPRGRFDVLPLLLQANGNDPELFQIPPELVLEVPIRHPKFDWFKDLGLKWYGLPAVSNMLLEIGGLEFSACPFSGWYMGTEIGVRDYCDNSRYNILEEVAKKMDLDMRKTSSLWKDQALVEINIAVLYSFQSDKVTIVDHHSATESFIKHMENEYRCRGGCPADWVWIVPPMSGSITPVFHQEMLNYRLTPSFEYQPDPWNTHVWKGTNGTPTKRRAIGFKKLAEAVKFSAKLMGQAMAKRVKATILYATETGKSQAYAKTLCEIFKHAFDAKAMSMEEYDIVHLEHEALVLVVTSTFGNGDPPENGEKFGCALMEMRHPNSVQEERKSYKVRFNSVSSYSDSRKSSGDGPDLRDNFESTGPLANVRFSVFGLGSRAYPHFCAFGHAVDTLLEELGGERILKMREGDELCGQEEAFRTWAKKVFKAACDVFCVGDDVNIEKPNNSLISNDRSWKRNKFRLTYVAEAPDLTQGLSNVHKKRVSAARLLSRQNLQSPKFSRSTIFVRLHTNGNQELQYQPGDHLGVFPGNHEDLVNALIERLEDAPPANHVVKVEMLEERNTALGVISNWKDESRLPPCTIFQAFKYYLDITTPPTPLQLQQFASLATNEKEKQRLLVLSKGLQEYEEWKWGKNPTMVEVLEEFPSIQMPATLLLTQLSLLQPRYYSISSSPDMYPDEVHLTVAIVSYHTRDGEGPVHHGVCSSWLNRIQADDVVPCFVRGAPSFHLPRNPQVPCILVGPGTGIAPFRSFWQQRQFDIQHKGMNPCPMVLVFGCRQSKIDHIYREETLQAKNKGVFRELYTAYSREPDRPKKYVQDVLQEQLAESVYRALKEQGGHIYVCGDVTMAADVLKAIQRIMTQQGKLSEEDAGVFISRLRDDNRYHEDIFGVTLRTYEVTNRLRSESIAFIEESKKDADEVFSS

Row | Structure (SMILES) | Ki (Nitric oxide synthase 3) [µM] | Ki (Nitric oxide synthase 1 [1]) [µM] | Ki (Nitric oxide synthase 1 [2]) [µM] | Ki [3] [µM] | t1/2 [4] [min] | t1/2 [5] [min]
1 | Cc1cc(N)nc(CCc2cc(CCN3CCN(C)CC3)cc(F)c2F)c1 | 12.4 |  |  |  |  | 
2 | CN(C)CCc1cc(F)c(F)c(CCc2cccc(N)n2)c1 | 61.4 | 1.64 | 1.11 |  |  | 
3 | Cc1cc(N)nc(/C=C/c2cc(CCN(C)C)cc(F)c2F)c1 | 14.3 | 0.048 |  | 11.9 |  | 
4 | CN(C)CCc1cc(F)c(F)c(CCc2cc(C(F)(F)F)cc(N)n2)c1.Cl.Cl | 68.3 |  |  |  |  | 
5 | Cc1cc(N)nc(CCc2cc(CC[C@H]3CCN3C)cc(F)c2F)c1.Cl.Cl |  |  |  |  | 16 | > 60
6 | Cc1cc(N)nc(C#Cc2cc(CN(C)C)cc(F)c2F)c1.Cl.Cl | 7.68 | 0.319 |  | 88.7 |  | 
7 | Cc1cc(N)nc(CCc2cc(CCN(C)C)cc(F)c2F)c1.Cl.Cl |  |  |  |  | 29 | > 60
8 | Cc1cc(N)nc(CCc2cc(CCN)cc(F)c2F)c1.Cl.Cl | 77.2 |  |  | 1.72 |  | 
9 | CCN(CC)CCc1cc(F)c(F)c(CCc2cc(C)cc(N)n2)c1.Cl.Cl | 46.4 |  |  |  |  | 
10 | Cc1cc(N)nc(C#Cc2cc(CCN(C)C)cc(F)c2F)c1 | 18.7 | 0.328 |  | 48.8 |  | 
